Data on one molecule can be found in publication PMC12667485, “Molecular Chain Elongation Mechanism for n‐Caproate Biosynthesis by Megasphaera Hexanoica” (Advanced Science, 2025).

The structures appear in SMILES notation.

The assay deals with T1, MhTHL (Megasphaera hexanoica, UniProt A0A848BQU5, C88S).
T1 construct: gene HF872_02440; tetramerization motif
In words: X-ray crystal structure, […] Å. The following applies: crystals soaked in 25 mM hexanoyl-CoA for 5 min, pH 7.5; the bound ligand is deacylated CoA; active site. Type of assay: binding.

T1 sequence (A0A848BQU5 entry or part of it C88S): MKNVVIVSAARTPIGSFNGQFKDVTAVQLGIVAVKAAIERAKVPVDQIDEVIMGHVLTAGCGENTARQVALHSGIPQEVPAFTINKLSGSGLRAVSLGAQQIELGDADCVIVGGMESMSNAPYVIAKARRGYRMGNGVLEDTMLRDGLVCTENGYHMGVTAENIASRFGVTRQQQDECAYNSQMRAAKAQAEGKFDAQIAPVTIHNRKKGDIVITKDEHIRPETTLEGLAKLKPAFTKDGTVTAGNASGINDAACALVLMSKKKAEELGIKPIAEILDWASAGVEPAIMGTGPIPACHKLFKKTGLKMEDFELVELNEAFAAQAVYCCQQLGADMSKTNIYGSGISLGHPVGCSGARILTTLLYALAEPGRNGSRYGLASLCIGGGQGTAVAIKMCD

On to `CC(C)(COP(=O)(O)OP(=O)(O)OC[C@H]1O[C@@H](n2cnc3c(N)ncnc32)[C@H](O)[C@@H]1OP(=O)(O)O)[C@@H](O)C(=O)NCCC(=O)NCCS` [CoA], for which the “X-ray crystal structure, 1.64 Å” value was “a deacylated CoA molecule was bound to MhTHL in the mF observed‐DF calculated electron density map”.
